Test results reported in US20260078158A1, “COMPOSITIONS COMPRISING CXCL10-DERIVED PEPTIDES AND METHODS OF USE THEREOF” (priority 2022, published 2026).
Converted amounts (≈) assume the structure as drawn. Where two headings read alike, the source gives them in different places. Where a SMILES comes first, the peptide text is derived from it. [ ]: non-standard residue; d: D form.

Tests used:
Streptococcus pneumoniae = experiment: microbe, parasite or virus in culture; format: cell-based
Staphylococcus aureus = experiment: microbe, parasite or virus in culture; format: cell-based
Pseudomonas aeruginosa = experiment: microbe, parasite or virus in culture; format: cell-based; details: for MIC50 fold change: Pseudomonas aeruginosa (5 isolates)
Enterococcus faecium = experiment: microbe, parasite or virus in culture; format: cell-based; details: for MIC50 fold change: Enterococcus faecium (3 isolates)
Enterococcus faecalis = experiment: microbe, parasite or virus in culture; format: cell-based; details: for MIC50 fold change: Enterococcus faecalis (2 isolates)
Klebsiella pneumoniae [1] = details: for MIC50 fold change: Klebsiella pneumoniae (5 isolates)
Escherichia coli = experiment: microbe, parasite or virus in culture; format: cell-based; details: for MIC50 fold change: Escherichia coli (5 isolates); for MIC: Escherichia coli, read-out: MIC
[2] = system: Acinetobacter baumannii-calcoaceticus complex; experiment: microbe, parasite or virus in culture; format: cell-based; details: for MIC50 fold change: Acinetobacter spp. (5 isolates); for MIC: Acinetobacter, ABC species complex, read-out: MIC
[3] = system: E. cloacae species complex; experiment: microbe, parasite or virus in culture; format: cell-based, Enterobacter cloacae; details: for MIC50 fold change: Enterobacter spp. (5 isolates); for MIC: Enterobacter cloacae, read-out: MIC
Klebsiella pneumoniae [4] = experiment: microbe, parasite or virus in culture

AYVRCRCI [Peptide P194-R1A]
MIC50 fold change (Streptococcus pneumoniae; relative to P194-acetate, Streptococcus pneumoniae (5 isolates)): 1
MIC50 fold change (Staphylococcus aureus; relative to P194-acetate, Staphylococcus aureus (5 isolates)): 0.5
MIC50 fold change (Pseudomonas aeruginosa; relative to P194-acetate): 1
MIC50 fold change (Enterococcus faecium; relative to P194-acetate): 2
MIC50 fold change (Enterococcus faecalis; relative to P194-acetate): 1
MIC50 fold change (Klebsiella pneumoniae [1]; relative to P194-acetate): 1
MIC50 fold change (Escherichia coli; relative to P194-acetate): 0.5
MIC50 fold change ([2]; relative to P194-acetate): 1
MIC50 fold change ([3]; relative to P194-acetate): 0.5

RTARCTCI [Peptide D8-V3A]
MIC50 fold change (Pseudomonas aeruginosa; relative to D8-acetate): >2
MIC50 fold change (Enterococcus faecium; relative to D8-acetate): 8
MIC50 fold change (Enterococcus faecalis; relative to D8-acetate): >4
MIC50 fold change (Klebsiella pneumoniae [1]; relative to D8-acetate): >8
MIC50 fold change (Escherichia coli; relative to D8-acetate): 16
MIC50 fold change ([2]; relative to D8-acetate): 32
MIC50 fold change ([3]; relative to D8-acetate): >4

CC[C@@H](C)[C@@H](NC(=O)[C@@H](CS)NC(=O)[C@@H](CCCNC(=N)N)NC(=O)[C@@H](CS)NC(=O)[C@@H](CCCNC(=N)N)NC(=O)[C@H](NC(=O)[C@@H](Cc1ccc(O)cc1)NC(=O)[C@H](N)CCCNC(=N)N)C(C)C)C(=O)O [P194 A, RYVRCRCI] (H-[dR][dY][dV][dR][dC][dR][dC][dI]-OH; N-terminus and C-terminus assumed)
MIC50 (Streptococcus pneumoniae): 32 µg/mL (≈ 30 µM)
MIC (Staphylococcus aureus): 32 µg/mL (≈ 30 µM)
MIC50 (Staphylococcus aureus): 32 µg/mL (≈ 30 µM)
MIC50 (Pseudomonas aeruginosa): 32 µg/mL (≈ 30 µM)
MIC (Enterococcus faecium): 2 µg/mL (≈ 1.87 µM)
MIC50 (Enterococcus faecium): 1 µg/mL (≈ 0.936 µM)
MIC (Enterococcus faecalis): 4 µg/mL (≈ 3.74 µM)
MIC50 (Enterococcus faecalis): 2 µg/mL (≈ 1.87 µM)
MIC50 (Klebsiella pneumoniae [1]): 4 µg/mL (≈ 3.74 µM)
MIC50 (Escherichia coli): 8 µg/mL (≈ 7.49 µM)
MIC50 ([2]; -calcoaceticus complex): 4 µg/mL (≈ 3.74 µM)
MIC50 ([3]; species complex): 16 µg/mL (≈ 15 µM)

RTVRATCI [Peptide D8-C5A]
MIC50 fold change (Pseudomonas aeruginosa; relative to D8-acetate): >2
MIC50 fold change (Enterococcus faecium; relative to D8-acetate): >16
MIC50 fold change (Enterococcus faecalis; relative to D8-acetate): >4
MIC50 fold change (Klebsiella pneumoniae [1]; relative to D8-acetate): >8
MIC50 fold change (Escherichia coli; relative to D8-acetate): >16
MIC50 fold change ([2]; relative to D8-acetate): >32
MIC50 fold change ([3]; relative to D8-acetate): >4

C[C@H]1COc2c(N3CCN(C)CC3)c(F)cc3c(=O)c(C(=O)O)cn1c23 [Levofloxacin, reference compound]
MIC (Streptococcus pneumoniae; ATCC49619, Streptococcus pneumoniae ATCC 49619, QC, read-out: MIC): 0.5 µg/mL (≈ 1.38 µM)
MIC (Streptococcus pneumoniae; Streptococcus pneumoniae, Collection No. 1200385, PEN-S, read-out: MIC): 1 µg/mL (≈ 2.77 µM)
MIC (Streptococcus pneumoniae; Streptococcus pneumoniae, Collection No. 1219456, PEN-R): 1 µg/mL (≈ 2.77 µM)
MIC (Streptococcus pneumoniae; Streptococcus pneumoniae, Collection No. 1219876, PEN-R): 1 µg/mL (≈ 2.77 µM)
MIC (Streptococcus pneumoniae; Streptococcus pneumoniae, Collection No. 1223661, PEN-R): 1 µg/mL (≈ 2.77 µM)
MIC (Streptococcus pneumoniae; Streptococcus pneumoniae, Collection No. 1227224, PEN-S): 1 µg/mL (≈ 2.77 µM)
MIC (Staphylococcus aureus; Staphylococcus aureus, MRSA / USA300, Staphylococcus aureus, Collection No. 1124691, MRSA (USA300)/MDR, read-out: MIC): 8 µg/mL (≈ 22.1 µM)
MIC (Staphylococcus aureus; Staphylococcus aureus, MRSA, Staphylococcus aureus, Collection No. 1189667, MRSA/MDR, read-out: MIC): > 64 µg/mL
MIC (Staphylococcus aureus; Staphylococcus aureus, MRSA, Staphylococcus aureus, Collection No. 1189809, MRSA/MDR, read-out: MIC): 32 µg/mL (≈ 88.6 µM)
MIC (Staphylococcus aureus; Staphylococcus aureus, MRSA, Staphylococcus aureus, Collection No. 1190388, MRSA, read-out: MIC): 16 µg/mL (≈ 44.3 µM)
MIC (Staphylococcus aureus; Staphylococcus aureus, MRSA, Staphylococcus aureus, Collection No. 1221979, MRSA, read-out: MIC): 1 µg/mL (≈ 2.77 µM)
MIC (Pseudomonas aeruginosa; Pseudomonas aeruginosa ATCC 27853, QC): 0.5 µg/mL (≈ 1.38 µM)
MIC (Pseudomonas aeruginosa; Pseudomonas aeruginosa, ATCC27853, Pseudomonas aeruginosa ATCC 27853, QC, read-out: MIC): 1 µg/mL (≈ 2.77 µM)
MIC (Pseudomonas aeruginosa; Pseudomonas aeruginosa, Collection No. 1190985, non-MDR, read-out: MIC): 0.25 µg/mL (≈ 0.692 µM)
MIC (Pseudomonas aeruginosa; Pseudomonas aeruginosa, Collection No. 1202638, MDR, read-out: MIC): 16 µg/mL (≈ 44.3 µM)
MIC (Pseudomonas aeruginosa; Pseudomonas aeruginosa, Collection No. 1210081, non-MDR, read-out: MIC): 0.5 µg/mL (≈ 1.38 µM)
MIC (Pseudomonas aeruginosa; Pseudomonas aeruginosa, Collection No. 1242554, non-MDR, read-out: MIC): 0.5 µg/mL (≈ 1.38 µM)
MIC (Pseudomonas aeruginosa; Pseudomonas aeruginosa, Collection No. 1263496, MDR, read-out: MIC): 0.25 µg/mL (≈ 0.692 µM)
MIC (Enterococcus faecium; Enterococcus faecium, Collection No. 1196024, VRE, read-out: MIC): > 64 µg/mL
MIC (Enterococcus faecium; Enterococcus faecium, Collection No. 1208412, VRE): >64 µg/mL
MIC (Enterococcus faecium; Enterococcus faecium, Collection No. 1222807, VSE, read-out: MIC): 8 µg/mL (≈ 22.1 µM)
MIC (Enterococcus faecalis; ATCC29212, Enterococcus faecalis ATCC 29212, QC, read-out: MIC): 0.5 µg/mL (≈ 1.38 µM)
MIC (Enterococcus faecalis; Enterococcus faecalis, Collection No. 1204777, VRE, read-out: MIC): 32 µg/mL (≈ 88.6 µM)
MIC (Enterococcus faecalis; Enterococcus faecalis, Collection No. 1211589, VRE): 32 µg/mL (≈ 88.6 µM)
MIC (Klebsiella pneumoniae [4]; ATCC700603, Klebsiella pneumoniae ATCC 700603, ESBL): 1 µg/mL (≈ 2.77 µM)
MIC (Klebsiella pneumoniae [4]; BAA1705, Klebsiella pneumoniae ATCC BAA 1705, KPC): 64 µg/mL (≈ 177 µM)
MIC (Klebsiella pneumoniae [4]; Collection No. 1230887, non-MDR): 0.06 µg/mL (≈ 0.166 µM)
MIC (Klebsiella pneumoniae [4]; Collection No. 1236064, non-MDR): 0.03 µg/mL (≈ 0.083 µM)
MIC (Escherichia coli; ATCC25922, Escherichia coli ATCC 25922, QC): 0.015 µg/mL (≈ 0.0415 µM)
MIC (Escherichia coli; ATCCBAA2452, Escherichia coli ATCC BAA-2452, NDM-1): 0.03 µg/mL (≈ 0.083 µM)
MIC (Escherichia coli; Collection No. 1191008, MDR, ESBL): 32 µg/mL (≈ 88.6 µM)
MIC (Escherichia coli; Collection No. 1231795, MDR, ESBL): 8 µg/mL (≈ 22.1 µM)
MIC (Escherichia coli; Collection No. 1232428, MDR (COL-R), ESBL): 8 µg/mL (≈ 22.1 µM)
MIC (Escherichia coli; Collection No. 1248389, ESBL): 8 µg/mL (≈ 22.1 µM)
MIC ([2]; Collection No. 1204424, non-MDR): 0.12 µg/mL (≈ 0.332 µM)
MIC ([2]; Collection No. 1208060, non-MDR): 0.06 µg/mL (≈ 0.166 µM)
MIC ([2]; Collection No. 1215088, MDR): 32 µg/mL (≈ 88.6 µM)
MIC ([2]; Collection No. 1215098, MDR): 16 µg/mL (≈ 44.3 µM)
MIC ([2]; Collection No. 1216520, non-MDR): 0.25 µg/mL (≈ 0.692 µM)
MIC ([3]; B. cloacae species complex, Collection No. 1204419, non-MDR): 0.03 µg/mL (≈ 0.083 µM)
MIC ([3]; Collection No. 1230117, non-MDR): 0.015 µg/mL (≈ 0.0415 µM)
MIC ([3]; E. cloacae species complex, Collection No. 1197959, non-MDR): 0.25 µg/mL (≈ 0.692 µM)
MIC ([3]; E. cloacae species complex, Collection No. 1230601, non-MDR): 0.03 µg/mL (≈ 0.083 µM)
MIC ([3]; E. cloacae species complex, Collection No. 1232701, MDR): 8 µg/mL (≈ 22.1 µM)

CC[C@@H](C)[C@@H](NC(=O)[C@@H](CS)NC(=O)[C@@H](CCCNC(=N)N)NC(=O)[C@@H](CS)NC(=O)[C@@H](CCCNC(=N)N)NC(=O)[C@H](NC(=O)[C@@H](Cc1ccc(O)cc1)NC(=O)[C@H](N)CCCNC(=N)N)C(C)C)C(=O)O [P194 F, RYVRCRCI] (H-[dR][dY][dV][dR][dC][dR][dC][dI]-OH; N-terminus and C-terminus assumed)
MIC (Streptococcus pneumoniae): 32 µg/mL (≈ 30 µM)
MIC (Enterococcus faecium): 4 µg/mL (≈ 3.74 µM)
MIC (Enterococcus faecalis): 8 µg/mL (≈ 7.49 µM)

RTVRCTAI [Peptide D8-C7A]
MIC50 fold change (Pseudomonas aeruginosa; relative to D8-acetate): >2
MIC50 fold change (Enterococcus faecium; relative to D8-acetate): 16
MIC50 fold change (Enterococcus faecalis; relative to D8-acetate): >4
MIC50 fold change (Klebsiella pneumoniae [1]; relative to D8-acetate): >8
MIC50 fold change (Escherichia coli; relative to D8-acetate): >16
MIC50 fold change ([2]; relative to D8-acetate): >32
MIC50 fold change ([3]; relative to D8-acetate): >4
